In paper PMC10046901, “Molecular Analysis of the Superior Efficacy of a Dual Epidermal Growth Factor Receptor (EGFR)-DNA-Targeting Combi-Molecule in Comparison with Its Putative Prodrugs 6-Mono-Alkylamino- and 6,6-Dialkylaminoquinazoline in a Human Osteosarcoma Xenograft Model” (Cells, 2023):

Assays:
MNNG/HOS = experiment: cells; assay type: cell-based; conditions: 120 h, read-out: IC50 growth inhibition
MG-63 = experiment: cells; assay type: cell-based; conditions: Homo sapiens, MG-63, 120 h, read-out: IC50 growth inhibition
U2-OS = experiment: cells; assay type: cell-based; conditions: Homo sapiens, U2OS, 120 h, read-out: IC50 growth inhibition
Saos-2 = experiment: cells; assay type: cell-based, human; conditions: Homo sapiens, SAOS-2, 120 h, read-out: IC50 growth inhibition
KHOS/NP = experiment: cells; assay type: cell-based; conditions: Homo sapiens, 120 h, read-out: IC50 growth inhibition
[1] = test system: several other osteosarcoma cell lines; set-up: method as in PMID 23091447; conditions: concentrations of up to 20 μM; cited from earlier work

Question: For `O=C(O)CCCc1ccc(N(CCCl)CCCl)cc1` [Chlorambucil, chlorambucil, reference compound], which IC50 (MNNG/HOS) is on record?
Answer: 12.1 ± 1.01 µM

Question: What about the IC50 (MG-63) of the same compound?
Answer: 13.1 ± 1.28 µM

Question: What about the IC50 (U2-OS) of the same compound?
Answer: 9.59 ± 0.55 µM

Question: What about the IC50 (Saos-2) of the same compound?
Answer: 7.53 ± 0.75 µM

Question: And the IC50 (KHOS/NP)?
Answer: 9.25 ± 1.35 µM

Question: For `COc1cc2ncnc(Nc3ccc(F)c(Cl)c3)c2cc1OCCCN1CCOCC1` [Gefitinib, gefitinib], which “effect on viability of osteosarcoma cell lines” value [1] is on record?
Answer: did not reduce the viability
